Data published in patent US20240366638A1, “[…] FOR TREATING PSY[…]” (SYNAPTIVE THERAPEUTICS LLC, priority 2021, published 2024).
“Also recorded” adds a separate entry of the source.

Key:
male C57BL/6 mice [1] = assay: Open field test (OFT), time in center zone; assay type: in vivo; set-up: key to OFT (center time): ↓ = decrease; ↑ = increase; neg = negative; pos = positive; ns = not statistically significant; settings: for OFT (center time): summary of effect on behavior, doses tested IP; for Time in the center zone of the open field chamber, statistical comparison between groups: various doses IP, 30 min period, one-way ANOVA with Tukey's test, diazepam positive control
Method: (§1) Methods. The open field test (OFT) was conducted by placing a mouse in a gray chamber 40×40 cm of 30 cm height and allowed to explore at will for 30 minutes. A digital camera positioned above the chamber recorded behavior. Animals that spend more time in the center (open area) compared to along the walls (thigmotaxis) are deemed less anxious. The open field apparatus was cleaned with Peroxigard wipes after each use.
(§2) Statistical analysis. Data were analyzed using a one-way ANOVA with drug dose as the primary factor. Post-hoc multiple comparison analysis was performed following significant main effects using Tukey's multiple comparisons test (GraphPad Prism 9.2.0). Statistical significance was set at P<0.05.
(§3) Results. A total of 170 male C57BL/6 mice were used for this study (see TABLE 3.). One mouse in the diazepam group died of unknown causes. Another mouse developed a skin condition in the aeruginascin (1.0 mg/kg) group and was excluded from the FST test. All other test groups consisted of N=10 per group. Statistical comparisons are noted in each figure legend.

male C57BL/6 mice [2] = assay: Tail suspension test (TST); assay type: in vivo; settings: for TST: summary of effect on behavior, doses tested IP, mice; for Tail suspension test activity (time immobile), statistical comparison between groups: various doses IP, 6 minutes, one-way ANOVA with Tukey's test, ketamine positive control
Method: (§4) The tail-suspension test (TST) is a model of depression and has been used to screen prospective antidepressant compounds. It involves suspending mice above the ground by their tails with tape for a predetermined time. A 17 cm piece of tape was taped to the tail (2 cm of the 17 cm) of each mouse and then attached to a metal shelf for 6 minutes. Each mouse was digitally recorded and data analyzed using specialized software with particular focus on time immobile. After the trial, tape was removed and mice returned to their home cage.
as §2, §3

male C57BL/6 mice [3] = assay: Elevated plus maze (EPM), time on open arms; assay type: in vivo; set-up: key to EPM: ↓ = decrease; ↑ = increase; neg = negative; pos = positive; ns = not statistically significant; settings: for EPM: summary of effect on behavior (time on open arms), doses tested IP; for Time spent on the open arms of the EPM, statistical comparison between groups: various doses IP, 5 minutes, one-way ANOVA with Tukey's test, diazepam positive control
Method: (§5) The elevated plus maze (EPM) is a behavioral assay that measures anxiety in rodents. The apparatus is composed of open and closed arms arranged in a “plus” measuring, 35 cm arm length; 5 cm arm width; 20 cm wall height and stands 61 cm height. Each mouse was placed on the maze within the center area facing towards an open arm and allowed to explore the EPM for 5 minutes. The experimenter observed the mouse from outside the test room through an observational window. Behavior was recorded via a digital camera mounted above the maze. The apparatus was cleaned with Peroxigard wipes after each trial.
as §2, §3

male C57BL/6 mice [4] = assay: Open field test (OFT), locomotor activity; assay type: in vivo; set-up: key to OFT: ↓ = decrease; ↑ = increase; neg = negative; pos = positive; ns = not statistically significant; settings: for OFT: summary of effect on overall locomotor activity, doses tested IP, mice; for Locomotor activity in the open field, statistical comparison between groups: various doses IP, 30 min period, one-way ANOVA with Tukey's test, diazepam positive control
Method: as §1, §2, §3

male C57BL/6 mice [5] = assay: Forced swim test (FST); assay type: in vivo; set-up: key to FST: ↓ = decrease; ↑ = increase; neg = negative; pos = positive; ns = not statistically significant; settings: for FST: summary of effect on behavior, doses tested IP, mice; for Forced swim test activity, statistical comparison between groups: various doses IP, 6 minutes, one-way ANOVA with Tukey's test, ketamine positive control
Method: (§6) The forced swim test is a classic behavioral assay to test for depressive behavior such as immobility. The apparatus is composed of a Plexiglas cylinder measuring (20 cm diameter, 45 cm height) that is filled with water maintained at room temperature (23-25 C). During testing, mice were placed into the water by the nape of the neck facing the wall and released and behavior recorded via a digital camera for 6 minutes. After the test, mice were dried off with a towel and placed in their home cage in which half is heated by a heating pad placed underneath the cage. Fecal matter was removed after every test. Water was changed after 10 mice were run in each cylinder. After the completion of the experiment, water was drained and the cylinder cleaned with Peroxigard wipes.
as §2, §3

male C57BL/6 mice [6] = assay: Animal models of anxiety and depression in mice, overall (OFT, EPM, TST, FST); assay type: in vivo; settings: IP, FST taken together
Method: Summary. The goal of the present project was to assess psilocybin metabolites in animal models of anxiety and depression in mice. Specifically, baeocystin (0.3 mg/kg-30 mg/kg), norbaeocystin (0.3-3.0 mg/kg), aeruginascin (0.3-3.0 mg/kg) and norpsilocin (0.3-3.0 mg/kg) were tested in the open field test (OFT), elevated plus maze (EPM), tail suspension test (TST) and forced swim test (FST). Overall, most compounds were ineffective and/or increased negative behaviors.
as §1, §5, §4
as §6, with “After the completion of the experiment, water was drained and the cylinder cleaned with Peroxigard wipes.” left out
Statistical analysis. Data were analyzed using a one-way ANOVA with drug dose as the primary factor. […]

[7] = cited from earlier work

| Structure (SMILES) | OFT (center time) (male C57BL/6 mice [1]; mice) | Time in the center zone of the open field chamber, statistical comparison between groups (male C57BL/6 mice [1]) | TST (male C57BL/6 mice [2]) | Tail suspension test activity (time immobile), statistical comparison between groups (male C57BL/6 mice [2]) | EPM (male C57BL/6 mice [3]; mice) | Time spent on the open arms of the EPM, statistical comparison between groups (male C57BL/6 mice [3]) | OFT (male C57BL/6 mice [4]) | Locomotor activity in the open field, statistical comparison between groups (male C57BL/6 mice [4]) | FST (male C57BL/6 mice [5]) | Forced swim test activity, statistical comparison between groups (male C57BL/6 mice [5]) | Overall effect across behavioral tests of anxiety and depression (male C57BL/6 mice [6]) | Hallucinogenic effect in a self-administered assay ([7]; 4 mg of baeocystin, Gartz research paper) | Psychoactivity in humans compared with psilocybin ([7]; 10 mg of baeocystin, study reported by Gartz) | Time spent on the open arms in the EPM (male C57BL/6 mice [3]; 10 mg/kg, IP, mice) | Time spent on the open arm in the EPM (male C57BL/6 mice [3]; 30 mg/kg (highest dose), IP, mice) | Time spent in the center zone in the OFT (male C57BL/6 mice [1]; 3.0 mg/kg, IP, mice) |
| --- | --- | --- | --- | --- | --- | --- | --- | --- | --- | --- | --- | --- | --- | --- | --- | --- |
| C[N+](C)(C)CCc1c[nH]c2cccc(OP(=O)(O)O)c12 [Aeruginascin] | ns | no significant differences between groups | ↑ (neg) | significant differences between saline and ketamine and all doses of aeruginascin | ns | no differences between groups | ↓ (neg) | significant difference between aeruginascin 0.3 and 1.0 mg/kg | ↑ (neg) | significant differences between ketamine and aeruginascin 0.3 and 3.0 mg/kg doses | either produced no significant effect or a significant negative impact across all behavioral tests |  |  |  |  |  |
| CNCCc1c[nH]c2cccc(OP(=O)(O)O)c12 [Baeocystin] | ns | no significant difference between groups | ↑ (neg) | significant differences between the two highest doses of baeocystin and other groups | ↑ (pos) | the highest dose of baeocystine increased time spent on the open arm compared to saline | ↓ (neg) | significant differences between the highest dose of baeocystin and all other groups | ns | no significant differences between groups | can exert anxiolytic effects in mice using certain behavioral procedures; also recorded: have anxiolytic activity and no harmful psychoactive effects, including no depressive activity | a gentle hallucinogenic experience | about as psychoactive as a similar amount of psilocybin | tended to increase time spent on the open arms however, this did not reach statistical significance | significantly increased time spent on the open arm |  |
| NCCc1c[nH]c2cccc(OP(=O)(O)O)c12 [Norbaeocystin] | ↓ (neg) | significant difference between diazepam and the highest dose of norbeaocystin | ↑ (neg) | significant differences between saline and ketamine and all doses of norbaeocystin | ns | no differences between groups | ns | a trend towards a difference between norbaeocystin 1.0 vs. 3.0 mg/kg | ns | no significant differences between groups | either produced no significant effect or a significant negative impact across all behavioral tests |  |  |  |  |  |
| CNCCc1c[nH]c2cccc(O)c12 [Norpsilocin] | ↑ (pos) | significantly increased time spent in the center zone of the OFT; also recorded: highly significant differences between the highest dose of norpsilocin and all other groups | ↑ (neg) | significant differences between ketamine and all doses of norpsilocin | ns | no differences between groups | ↓ (neg) | significant differences between diazepam and norpsilocin 1.0 and 3.0 mg/kg | ns | no differences between any groups | can exert anxiolytic effects in mice using certain behavioral procedures; also recorded: have anxiolytic activity and no harmful psychoactive effects, including no depressive activity |  |  |  |  | the only compound that increased time spent in the center zone in the OFT and this effect was highly significant |
